Reference: patent publication US11584714B2 (priority 2018, dated 2023)
Counter-ions that a name gives are not always drawn. Like-named read-outs stand apart in the source and are kept apart here.

Columns and labels:
MASP-2 (CCP1-CCP2-SP) = MASP-2 (CCP1-CCP2-SP) (Homo sapiens (Human), UniProt O00187); experiment: biochemical; type: biochemical
human α-thrombin = human α-thrombin (Homo sapiens (Human), UniProt P00734); experiment: Enzymatic assay for thrombin (Boc-VPR-AMC substrate); type: biochemical
[1] = MASP-2 inhibition versus thrombin
[2] = selectivity for MASP-2 inhibition versus thrombin

Sequence of MASP-2 (CCP1-CCP2-SP) (O00187 445-686): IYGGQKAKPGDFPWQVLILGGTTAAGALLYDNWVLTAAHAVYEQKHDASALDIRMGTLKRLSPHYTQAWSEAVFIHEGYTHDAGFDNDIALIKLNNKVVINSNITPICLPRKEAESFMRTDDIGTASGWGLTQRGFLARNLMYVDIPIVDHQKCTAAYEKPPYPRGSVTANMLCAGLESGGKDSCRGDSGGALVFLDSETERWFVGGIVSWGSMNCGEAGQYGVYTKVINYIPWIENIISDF

Compound	Ki (MASP-2 (CCP1-CCP2-SP); read-out: MASP-2 Ki) [nM]	Ki (human α-thrombin; read-out: Thrombin Ki) [µM]	Ki (MASP-2 (CCP1-CCP2-SP)) [nM]	MASP-2 vs. thrombin selectivity (MASP-2 (CCP1-CCP2-SP); [2])	other results
C[C@H](NC(=O)[C@@H](CCc1ccccc1)NCC(C)(C)C)C(=O)NCc1ccc(C(=N)N)cc1 [compound 1126]	< 500	< 0.5			MASP-2 vs. thrombin selectivity (MASP-2 (CCP1-CCP2-SP); [1]): −− (less than 1.0-fold)
C[C@H](NC(=O)[C@@H](CCc1ccccc1)NC1CCCCC1)C(=O)NCc1ccc(C(=N)N)cc1 [compound 1130, (R)—N—((S)-1-((4-Carbamimidoylbenzyl)amino)-1-oxopropan-2-yl)-2-(cyclohexylamino)-4-phenylbutanamide Dihydrochloride]	< 500	< 0.5			MASP-2 vs. thrombin selectivity (MASP-2 (CCP1-CCP2-SP); [1]): −− (less than 1.0-fold)
C[C@H](NC(=O)[C@@H](CCc1ccccc1)NCc1ccc(O)cc1)C(=O)NCc1ccc(C(=N)N)cc1 [compound 1140, (R)—N—((S)-1-((4-Carbamimidoylbenzyl)amino)-1-oxopropan-2-yl)-2-((4-hydroxybenzyl)amino)-4-phenylbutanamide Dihydrochloride]	< 500	< 0.5			MASP-2 vs. thrombin selectivity (MASP-2 (CCP1-CCP2-SP); [1]): −− (less than 1.0-fold)
COC(=O)COc1ccc(CN[C@H](CCc2ccccc2)C(=O)N[C@@H](C)C(=O)NCc2ccc(C(=N)N)cc2)cc1 [compound 1151]	< 500	< 0.5			MASP-2 vs. thrombin selectivity (MASP-2 (CCP1-CCP2-SP); [1]): −− (less than 1.0-fold)
C[C@H](NC(=O)[C@@H](CCc1ccccc1)NCc1ccc(N2CCN(C)CC2)cc1)C(=O)NCc1ccc(C(=N)N)cc1 [compound 1152]	< 500	< 0.5			MASP-2 vs. thrombin selectivity (MASP-2 (CCP1-CCP2-SP); [1]): * (1.0 to 5.0-fold)
C[C@H](NC(=O)[C@@H](CCc1ccccc1)NCc1ccccc1N1CCN(C)CC1)C(=O)NCc1ccc(C(=N)N)cc1 [compound 1232, (R)—N—((S)-1-((4-Carbamimidoylbenzyl)amino)-1-oxopropan-2-yl)-2-((2-(4-methylpiperazin-1-yl)benzyl)amino)-4-phenylbutanamide]		< 0.5	500 to 2500	−− (<1.0-fold)	
C[C@H](NC(=O)[C@H](N)CCc1ccccc1)C(=O)NCc1cc(Cl)ccc1OCC(=O)NCCCO [compound 1237, (R)-2-amino-N—((S)-1-((5-chloro-2-(2-((3-hydroxypropyl)amino)-2-oxoethoxy)benzyl)amino)-1-oxopropan-2-yl)-4-phenylbutanamide]			10000 to 25000	−− (<1.0-fold)	Ki (human α-thrombin; Thrombin Ki (μM)): 0.5 to 2.5 µM
Cc1cc(N)ncc1CNC(=O)[C@H](C)NC(=O)[C@H](N)CCc1ccccc1 [compound 1243, (R)-2-Amino-N—((S)-1-(((6-amino-4-methylpyridin-3-yl)methyl)amino)-1-oxopropan-2-yl)-4-phenylbutanamide]		> 25	10000 to 25000		
Cc1cc(CNC(=O)[C@H](C)NC(=O)[C@H](N)CCc2ccccc2)cnc1N [compound 1244, (R)-2-Amino-N—((S)-1-(((6-amino-5-methylpyridin-3-yl)methyl)amino)-1-oxopropan-2-yl)-4-phenylbutanamide]		> 25	500 to 2500	** (≥5.0 to <25-fold)	
C[C@H](NC(=O)[C@H](N)CCc1ccccc1)C(=O)NCc1cc(Cl)ccc1[N+](=O)[O-] [compound 1246, (R)-2-Amino-N—((S)-1-((5-chloro-2-nitrobenzyl)amino)-1-oxopropan-2-yl)-4-phenylbutanamide]			10000 to 25000	* (≥1.0 to <5.0-fold)	Ki (human α-thrombin; Thrombin Ki (μM)): 10 to 25 µM
COc1cc(C(=N)N)ccc1CNC(=O)[C@H](C)NC(=O)[C@H](N)CCc1ccccc1 [compound 1251, (R)-2-amino-N—((S)-1-((4-carbamimidoyl-2-methoxybenzyl)amino)-1-oxopropan-2-yl)-4-phenylbutanamide]		< 0.5	500 to 2500	−− (<1.0-fold)	
Cc1ccc([C@H]2CN[C@@H](C(=O)N[C@@H](C)C(=O)NCc3ccc(C(=N)N)cc3)C2)cc1 [compound 1252, (2R,4S)—N—((S)-1-((4-Carbamimidoylbenzyl)amino)-1-oxopropan-2-yl)-4-(p-tolyl)pyrrolidine-2-carboxamide]	< 500			*** (≥25 to <100-fold)	Ki (human α-thrombin; Thrombin Ki (μM)): 2.5 to 10 µM
Cc1cccc([C@H]2CN[C@@H](C(=O)N[C@@H](C)C(=O)NCc3cc(Cl)ccc3O)C2)c1 [compound 1254, (2R,4S)—N—((S)-1-((5-Chloro-2-hydroxybenzyl)amino)-1-oxopropan-2-yl)-4-(m-tolyl)pyrrolidine-2-carboxamide]	< 500			*** (≥25 to <100-fold)	Ki (human α-thrombin; Thrombin Ki (μM)): 10 to 25 µM
C[C@H](NC(=O)[C@@H](CCc1ccccc1)NCc1ccc2cc(O)ccc2c1)C(=O)NCc1ccc(C(=N)N)cc1 [compound 1256, (R)—N—((S)-1-((4-Carbamimidoylbenzyl)amino)-1-oxopropan-2-yl)-2-(((6-hydroxynaphthalen-2-yl)methyl)amino)-4-phenylbutanamide]	< 500	< 0.5		* (≥1.0 to <5.0-fold)	
COC(=O)NC(=N)c1ccc(CNC(=O)[C@H](C)NC(=O)[C@H]2C[C@H](c3ccccc3)CN2)cc1 [compound 1258, Methyl (imino(4-(((S)-2-((2R,4R)-4-phenylpyrrolidine-2-carboxamido)propanamido)methyl)phenyl)methyl)carbamate]		> 25	2500 to 10000		
C[C@H](NC(=O)[C@H]1C[C@H](c2ccccc2)CN1)C(=O)NCc1ccc(C(=N)NC(=O)OCc2ccccc2)cc1 [compound 1259, Benzyl (imino(4-(((S)-2-((2R,4R)-4-phenylpyrrolidine-2-carboxamido)propanamido)methyl)phenyl)methyl)carbamate]		> 25	2500 to 10000		
CCCCCCOC(=O)NC(=N)c1ccc(CNC(=O)[C@H](C)NC(=O)[C@H]2C[C@H](c3ccccc3)CN2)cc1 [compound 1260, Hexyl (imino(4-(((S)-2-((2R,4R)-4-phenylpyrrolidine-2-carboxamido)propanamido)methyl)phenyl)methyl)carbamate]	2500 to 10000	> 25			
COc1cccc([C@H]2CN[C@@H](C(=O)N[C@@H](C)C(=O)NCc3ccc(C(=N)N)cc3)C2)c1 [compound 1262, (2R,4S)—N—((S)-1-((4-Carbamimidoylbenzyl)amino)-1-oxopropan-2-yl)-4-(3-methoxyphenyl)pyrrolidine-2-carboxamide]	< 500			*** (≥25 to <100-fold)	Ki (human α-thrombin; Thrombin Ki (μM)): 0.5 to 2.5 µM
C[C@H](NC(=O)[C@H](N)CCc1ccccc1)C(=O)NCc1cc(Cl)ccc1-n1cnnn1 [compound 1325, (R)-2-amino-N—((S)-1-((5-chloro-2-(1H-tetrazol-1-yl)benzyl)amino)-1-oxopropan-2-yl)-4-phenylbutanamide]		< 0.5		−− (<1.0-fold)	
Cc1cccc(CNC(=O)[C@H](C)NC(=O)[C@H]2C[C@H](Cc3ccccc3)CN2)c1-n1ncnn1 [compound 1437, (2R,4S)-4-Benzyl-N-((S)-1-((3-methyl-2-(2H-tetrazol-2-yl)benzyl)amino)-1-oxopropan-2-yl)pyrrolidine-2-carboxamide]		> 25		** (≥5.0 to <25-fold)	
N=C(N)c1ccc2[nH]c(-c3c[nH]cn3)nc2c1 [compound 2000, 2-(1H-imidazol-4-yl)-1H-benzo[d]imidazole-5-carboximidamide dihydrochloride]			> 25000		MASP-2 versus thrombin selectivity (MASP-2 (CCP1-CCP2-SP); +Zn): ++ (+Zn) (5.0 to 25-fold); Ki (MASP-2 (CCP1-CCP2-SP); +Zn, read-out: MASP-2 Ki): < 500 nM; Ki (human α-thrombin; +Zn, read-out: Thrombin Ki): < 10 µM; Ki (human α-thrombin; Thrombin Ki (μM), +EDTA): > 25 µM
N=C(N)c1ccc2[nH]c(-c3ccccn3)nc2c1 [compound 2001, 2-(Pyridin-2-yl)-1H-benzo[d]imidazole-5-carboximidamide Dihydrochloride]			> 25000		MASP-2 versus thrombin selectivity (MASP-2 (CCP1-CCP2-SP); +Zn): ++ (+Zn) (5.0 to 25-fold); Ki (MASP-2 (CCP1-CCP2-SP); +Zn, read-out: MASP-2 Ki): < 500 nM; Ki (human α-thrombin; +Zn, read-out: Thrombin Ki): < 2.5 µM; Ki (human α-thrombin; Thrombin Ki (μM), +EDTA): > 25 µM
N=C(N)c1ccc2[nH]c(Cc3ccccn3)nc2c1 [compound 2002, 2-(Pyridin-2-ylmethyl)-1H-benzo[d]imidazole-5-carboximidamide Dihydrochloride]			> 25000		Ki (MASP-2 (CCP1-CCP2-SP); +Zn, read-out: MASP-2 Ki): < 2500 nM; Ki (human α-thrombin; +Zn, read-out: Thrombin Ki): < 25 µM; Ki (human α-thrombin; Thrombin Ki (μM), +EDTA): > 25 µM
Cc1cccc(-c2nc3cc(C(=N)N)ccc3[nH]2)n1 [compound 2003, 2-(6-methylpyridin-2-yl)-1H-benzo[d]imidazole-5-carboximidamide]			> 25000		MASP-2 versus thrombin selectivity (MASP-2 (CCP1-CCP2-SP); +Zn): +++ (+Zn) (25 to 100-fold); Ki (MASP-2 (CCP1-CCP2-SP); +Zn, read-out: MASP-2 Ki): < 50 nM; Ki (human α-thrombin; +Zn, read-out: Thrombin Ki): < 2.5 µM; Ki (human α-thrombin; Thrombin Ki (μM), +EDTA): > 25 µM
Cc1cccnc1-c1nc2cc(C(=N)N)ccc2[nH]1 [compound 2004, 2-(3-methylpyridin-2-yl)-1H-benzo[d]imidazole-5-carboximidamide dihydrochloride]			> 25000		MASP-2 versus thrombin selectivity (MASP-2 (CCP1-CCP2-SP); +Zn): + (+Zn) (1.0 to 5.0-fold); Ki (MASP-2 (CCP1-CCP2-SP); +Zn, read-out: MASP-2 Ki): < 500 nM; Ki (human α-thrombin; +Zn, read-out: Thrombin Ki): < 0.5 µM; Ki (human α-thrombin; Thrombin Ki (μM), +EDTA): > 25 µM
Cc1ccnc(-c2nc3cc(C(=N)N)ccc3[nH]2)c1 [compound 2005, 2-(4-methylpyridin-2-yl)-1H-benzo[d]imidazole-5-carboximidamide dihydrochloride]			> 25000		MASP-2 versus thrombin selectivity (MASP-2 (CCP1-CCP2-SP); +Zn): + (+Zn) (1.0 to 5.0-fold); Ki (MASP-2 (CCP1-CCP2-SP); +Zn, read-out: MASP-2 Ki): < 50 nM; Ki (human α-thrombin; +Zn, read-out: Thrombin Ki): < 0.05 µM; Ki (human α-thrombin; Thrombin Ki (μM), +EDTA): > 25 µM
Nc1ccc2[nH]c(Cc3nc4cc(N)ccc4[nH]3)nc2c1 [compound 2006]			> 25000		MASP-2 versus thrombin selectivity (MASP-2 (CCP1-CCP2-SP); +Zn): + (+Zn) (1.0 to 5.0-fold); Ki (MASP-2 (CCP1-CCP2-SP); +Zn, read-out: MASP-2 Ki): < 10000 nM; Ki (human α-thrombin; +EDTA, read-out: Thrombin Ki): > 25 µM; Ki (human α-thrombin; +Zn, read-out: Thrombin Ki): > 25 µM
CCc1ccc(-c2nc3cc(C(=N)N)ccc3[nH]2)nc1 [compound 2007, 2-(5-ethylpyridin-2-yl)-1H-benzo[d]imidazole-5-carboximidamide dihydrochloride]			> 25000		MASP-2 versus thrombin selectivity (MASP-2 (CCP1-CCP2-SP); +Zn): ++ (+Zn) (5.0 to 25-fold); Ki (MASP-2 (CCP1-CCP2-SP); +Zn, read-out: MASP-2 Ki): < 500 nM; Ki (human α-thrombin; +Zn, read-out: Thrombin Ki): < 2.5 µM; Ki (human α-thrombin; Thrombin Ki (μM), +EDTA): > 25 µM
